Measured values reported in PMC9645344, “Serotonin-releasing agents with reduced off-target effects” (Molecular Psychiatry, 2022).

Columns and labels:
human SERT = target: T1, human SERT (Homo sapiens, UniProt P31645); test: [3H]5-HT release assay in HEK293 cells (superfusion); type: cell-based; conditions: 10 µM, SERT-expressing HEK293 cells
T1 construct: expressed in transfected cells
Procedure: HEK293 cells stably expressing SERT were seeded onto PDL-coated glass coverslips (5 mm diameter) that were placed into 96-well plates at a density of 40,000 cells per well the day before the experiment. Cells were preloaded with [^3H]5-HT (0.4 µM, 20 min at 37 °C). Subsequently, the cells were transferred into small chambers with a total volume of 200 µl and superfused with KHB at a flow rate of 0.7 ml per min for 40 min to establish a stable baseline before the collection of 2-min fractions was initiated. For each experiment, three basal fractions were collected before the cells were exposed to various concentrations (given in the figure legends) of the test drugs for five fractions. Subsequently, the cells were superfused with 1% SDS for three final fractions that served to determine the total amount of radioactivity present within the cells at the end of each experimental run. The amount of tritium within each fraction was determined by liquid scintillation counting, and release was expressed as percentage of radioactivity released in relation to the total radioactivity present at the beginning of that fraction. Observations from superfusion experiments were excluded in case of premature exposure to SDS.

C57BL/6N mice = test: Forced-swim test (FST); type: in vivo; conditions: for immobility time in the FST versus vehicle: mice
Procedure: (§1) All in vivo experiments were performed in adult mice (>6 weeks old). For the photometry and microdialysis experiments, which were carried out in Florida, male C57BL/6J mice from The Jackson Laboratory (Bar Harbor, ME, USA) were group-housed in polycarbonate cages (GM500, Tecniplast, Buguggiate, Italy) with lights on from 7 a.m. to 7 p.m. Food and water were provided ad libitum. Photometry and microdialysis experiments were performed in accordance with a protocol approved by the Institutional Animal Care and Use Committee at Florida Atlantic University. For the behavioral experiments, which were carried out in Vienna, C57BL/6N mice from Charles River (Sulzfeld, Germany) were group-housed in polycarbonate cages with lights on from 7 a.m. to 7 p.m. Food and water were provided ad libitum. Behavioral experiments were performed in accordance with a protocol approved by the Austrian national ethical committee on animal care and use (Bundesministerium für Wissenschaft und Forschung: BMWFW-66.009/0016-WF/V/3b/2015). All animal procedures were conducted in agreement with the ARRIVE guidelines and the U.K. Animal (Scientific Procedures) Act, 1986, and associated guidelines, EU Directive 2010/63/EU for animal experiments. Mice were given at least 1 week to acclimate before being used in any experiments.
For behavioral assays, animals were assigned to treatment groups and injected with test drugs by an unblinded observer.
The FST was performed as previously described. In brief, mice were placed for 6 min in a beaker (diameter: 19 cm, height: 23 cm), halfway filled with water (22–23 °C), and the immobility time was quantified using the software Videotrack (Viewpoint, Champagne au Mont d’Or, France). Immobility was defined as the absence of any movement, except for those required to keep the head above the water. The time spent immobile during the final 4 min of the test was used as a measure of behavioral despair. Animal sample size was confirmed using a post hoc analysis of the achieved power using G*Power3.1 [29]. Using a significance level (α) of 0.05 and an effect size f = 2.5 and a sample size of 6 animals/group we achieved the commonly accepted statistical power (1−β) of 0.8.

[1] = system: extracellular 5-HT in the NAc; test: Fiber photometry with GRAB5-HT sensor in the NAc of freely moving mice; type: in vivo; conditions: for relative GRAB5-HT fluorescence at peak versus saline: t = 700-900 s post injection, drug alone, D-FEN 10, S-4-MC 5, S-4-TFMMC 10 mg kg-1 intraperitoneal
Procedure: as §1
Mice were anesthetized with isoflurane (5% induction, 2% maintenance) and placed into a stereotaxic frame (Kopf Instruments, Tujunga, CA, USA) oriented in the flat skull position. Ophthalmic ointment was applied to prevent drying of the eyes. Ketoprofen (10 mg kg^−1) was administered subcutaneously (s.c.), whereas bupivacaine and lidocaine were administered locally (s.c.; 100 µl of sterile saline containing 0.05% bupivacaine and 0.2% lidocaine) to the surgical site atop the head. A midline incision was made through the skin on the dorsal surface of the head to expose the skull. Fascia was removed, coordinates for the NAc were determined relative to bregma: anterior/posterior = 1.54 mm; medial/lateral = 0.7 mm; dorsal/ventral = −4.1 mm. A 1 mm burr hole was drilled through the skull. […] For the mice used for fiber photometry, 4*10^12 genome copies of AAV9-hSyn-5-HT2h or 10^10 genome copies of AAV-hSyn-DA2m were delivered into the NAc at an infusion rate of 100 nl min^−1 (total volume of 1 µl) using a 34-gauge needle attached to a 10 µl Nanofil microsyringe (Hamilton, Reno, NV, USA), as previously described. Following injection of the virus, an optical fiber was lowered through the burr hole and secured with glass ionomer cement. Three 1.6 mm screws (00-96X1/16 39052, Plastics One Inc., Roanoke, VA, USA) were affixed to the skull to support a cement stage that was created to secure the implanted guide cannulae or optical fiber. Mice were singly housed following surgery and allowed 6 days of recovery for the microdialysis experiments or 21 days for the photometry experiments. Food and water were available ad libitum.
To monitor light emitted from the G-protein coupled receptor-activation-based 5-HT (GRAB5-HT) and DA (GRABDA) sensors, fiber photometry was performed as described. Briefly, a light emitting diode (465 nm) (CLED_465, Doric Lenses, Quebec, QC, Canada), reflected through a dichroic mirror, was coupled to an optical fiber (200 µm core/225 cladding diameter; Thorlabs, Newton, NJ, USA) that was glued to a metal ferrule (Doric Lenses, Quebec, QC, Canada) and implanted into the NAc as described above. Emitted, band-pass filtered light (500–550 nm, FMC6, Doric Lenses, Quebec,QC, Canada) was detected with a photodetector (Newport Femtowatt silicone PIN; New Focus, San Jose, CA, USA). Data were recorded using a RZ5P lock-in amplifier (Tucker-Davis Technologies, Alachua, FL, USA) controlled with Synapse software. Sinusoidal excitation was delivered at 210 Hz by an LED driver Doric Lenses, LEDD_4) at low power mode. A demodulated signal was low-pass filtered at 6 Hz and digitized at 1017 Hz. […]

[2] = system: extracellular DA in the NAc; test: Fiber photometry with GRABDA sensor in the NAc; type: in vivo, mice
Procedure: All in vivo experiments were performed in adult mice (>6 weeks old). For the photometry and microdialysis experiments, which were carried out in Florida, male C57BL/6J mice from The Jackson Laboratory (Bar Harbor, ME, USA) were group-housed in polycarbonate cages (GM500, Tecniplast, Buguggiate, Italy) with lights on from 7 a.m. to 7 p.m. Food and water were provided ad libitum. Photometry and microdialysis experiments were performed in accordance with a protocol approved by the Institutional Animal Care and Use Committee at Florida Atlantic University. […]
Mice were anesthetized with isoflurane (5% induction, 2% maintenance) and placed into a stereotaxic frame (Kopf Instruments, Tujunga, CA, USA) oriented in the flat skull position. […] Fascia was removed, coordinates for the NAc were determined relative to bregma: anterior/posterior = 1.54 mm; medial/lateral = 0.7 mm; dorsal/ventral = −4.1 mm. […]
To monitor light emitted from the G-protein coupled receptor-activation-based 5-HT (GRAB5-HT) and DA (GRABDA) sensors, fiber photometry was performed as described. […] Emitted, band-pass filtered light (500–550 nm, FMC6, Doric Lenses, Quebec,QC, Canada) was detected with a photodetector (Newport Femtowatt silicone PIN; New Focus, San Jose, CA, USA). Data were recorded using a RZ5P lock-in amplifier (Tucker-Davis Technologies, Alachua, FL, USA) controlled with Synapse software. […]

T1 sequence (P31645 whole entry, the tested form may be a part): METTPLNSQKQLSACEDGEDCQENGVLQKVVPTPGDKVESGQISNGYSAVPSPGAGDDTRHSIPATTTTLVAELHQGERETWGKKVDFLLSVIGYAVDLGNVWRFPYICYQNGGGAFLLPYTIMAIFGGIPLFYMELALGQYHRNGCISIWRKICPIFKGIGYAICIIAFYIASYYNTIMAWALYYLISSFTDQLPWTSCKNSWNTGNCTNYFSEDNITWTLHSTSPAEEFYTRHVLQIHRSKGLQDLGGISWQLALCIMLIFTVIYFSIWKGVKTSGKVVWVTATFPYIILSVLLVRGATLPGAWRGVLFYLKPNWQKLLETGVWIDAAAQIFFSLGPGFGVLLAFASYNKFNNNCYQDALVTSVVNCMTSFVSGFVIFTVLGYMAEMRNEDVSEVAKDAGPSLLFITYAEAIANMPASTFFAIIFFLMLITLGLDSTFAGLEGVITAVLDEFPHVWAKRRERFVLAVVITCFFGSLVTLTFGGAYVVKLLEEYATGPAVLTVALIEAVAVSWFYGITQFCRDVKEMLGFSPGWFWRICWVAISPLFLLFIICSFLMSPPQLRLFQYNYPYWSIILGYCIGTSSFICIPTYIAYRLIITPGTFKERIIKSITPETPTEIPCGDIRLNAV

SMILES	effect on release of preloaded [3H]5-HT (human SERT)	immobility time in the FST versus vehicle (C57BL/6N mice; 1 mg kg-1 intraperitoneal)	time spent immobile in the FST, male and female mice (C57BL/6N mice; 5 mg kg-1 intraperitoneal)	immobility time in the FST versus vehicle (C57BL/6N mice; 5 mg kg-1 intraperitoneal)	immobility time in the FST versus vehicle (C57BL/6N mice; 10 mg kg-1 intraperitoneal)	extracellular 5-HT in the NAc (GRAB5-HT fluorescence) ([1]; 5 mg kg-1 intraperitoneal)	5-HT sensor response on day 1 versus day 2 ([1]; 5 mg kg-1 intraperitoneal, two doses 24 h apart)	extracellular 5-HT in the NAc (GRAB5-HT fluorescence) with co-administered fluoxetine ([1]; 5 mg kg-1 plus fluoxetine 10 mg kg-1 intraperitoneal)	relative GRAB5-HT fluorescence at peak versus saline [1]	basal DA levels in the NAc (GRABDA fluorescence) ([2]; 5 mg kg-1 intraperitoneal)	time spent immobile in the FST, male and female mice (C57BL/6N mice; 10 mg kg-1 intraperitoneal)	extracellular 5-HT in the NAc (GRAB5-HT fluorescence) ([1]; 10 mg kg-1 intraperitoneal)	extracellular 5-HT in the NAc (GRAB5-HT fluorescence) with co-administered fluoxetine ([1]; 10 mg kg-1 plus fluoxetine 10 mg kg-1 intraperitoneal)	basal DA levels in the NAc (GRABDA fluorescence) ([2]; 10 mg kg-1 intraperitoneal)
Cc1ccc(C(=O)[C@H](C)N)cc1 [S-4-MC, 4-methylcathinone]	robustly increased	significantly reduced immobility time versus vehicle	significantly reduced the time spent immobile regardless of sex	significantly reduced immobility time versus vehicle	significantly reduced immobility time versus vehicle	elevated extracellular 5-HT in the NAc in a time-dependent manner	no significant difference	this effect could be prevented by fluoxetine	Significant effects	neither S-4-MC, nor S-4-TFMMC significantly elevated the basal DA levels	–	–	–	–
CN[C@@H](C)C(=O)c1ccc(C(F)(F)F)cc1 [S-4-TFMMC, 4-trifluoromethyl-N-methylcathinone]	robustly increased	–	–	–	significantly differed from the vehicle group	–	–	–	Significant effects	–	significantly reduced the time spent immobile regardless of sex	elevated extracellular 5-HT in the NAc in a time-dependent manner	this effect could be prevented by fluoxetine	neither S-4-MC, nor S-4-TFMMC significantly elevated the basal DA levels
